Data reported in ChEMBL document CHEMBL1201862, “PubChem BioAssay data set” (2004).
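In this assay, cells in 96-well plates receive the compound at five concentrations for 48 hours. Endpoints are linearly interpolated between the surrounding concentrations. GI50: concentration for 50% inhibition of growth.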 Activity calls are given as the source filed them. Cut-off read from the data, not from the text of the source: active = GI50 up to about 1.1 µM and inactive = higher.

Tests used:
Experiment in all cases: inhibition of tumour cell growth, NCI panel, 48 h
[1] = tested on: ACHN
[2] = tested on: Malme-3M
[3] = tested on: SN12C
[4] = tested on: MDA-MB-435
[5] = tested on: A549
[6] = tested on: OVCAR-3
[7] = tested on: SF-539
[8] = tested on: OVCAR-8
[9] = tested on: PC-3
[10] = tested on: SF-295
[11] = tested on: KM12
[12] = tested on: SF-268
[13] = tested on: XF498
[14] = tested on: OVCAR-4
[15] = tested on: IGROV-1
[16] = tested on: UO-31
[17] = tested on: SW-620
[18] = tested on: DMS-114
[19] = tested on: SK-MEL-2
[20] = tested on: TK-10
[21] = tested on: KM-20L2
[22] = tested on: NCI-H226
[23] = tested on: SNB-78
[24] = tested on: HCT-15
[25] = tested on: OVCAR-5
[26] = tested on: HCT-116
[27] = tested on: RXF 393
[28] = tested on: DLD-1
[29] = tested on: UACC-257
[30] = tested on: RPMI-8226
[31] = tested on: BT-549
[32] = tested on: CCRF-CEM
[33] = tested on: EKVX
[34] = tested on: MOLT-4
[35] = tested on: LOX IMVI
[36] = tested on: NCI-H460
[37] = tested on: M14
[38] = tested on: NCI-H23
[39] = tested on: U-251
[40] = tested on: DU-145
[41] = tested on: MDA-N
[42] = tested on: CAKI-1
[43] = tested on: 786-0
[44] = tested on: DMS-273
[45] = tested on: NCI/ADR-RES
[46] = tested on: HOP-18
[47] = tested on: HT-29
[48] = tested on: MDA-MB-231
[49] = tested on: SNB-19
[50] = tested on: LXFL 529
[51] = tested on: RXF 631
[52] = tested on: A498
[53] = tested on: Hs-578T
[54] = tested on: HOP-92
[55] = tested on: COLO 205
[56] = tested on: K562
[57] = tested on: SK-MEL-28
[58] = tested on: HL-60
[59] = tested on: HCC 2998
[60] = tested on: SK-OV-3
[61] = tested on: NCI-H522
[62] = tested on: MCF7
[63] = tested on: SK-MEL-5
[64] = tested on: SNB-75
[65] = tested on: HOP-62
[66] = tested on: UACC-62
[67] = tested on: SR

Brc1ccccc2cc(-c3ccccc3)nc1-2
GI50 [1]: 3.37 µM (inactive) | GI50 [2]: 3.01 µM (inactive) | GI50 [3]: 1.87 µM (inactive) | GI50 [4]: 9.95 µM (inactive) | GI50 [5]: 14.7 µM (inactive) | GI50 [6]: 2.16 µM (inactive) | GI50 [7]: 4.8 µM (inactive) | GI50 [8]: 2.27 µM (inactive) | GI50 [9]: 13.5 µM (inactive) | GI50 [10]: 15.6 µM (inactive) | GI50 [11]: 5.97 µM (inactive) | GI50 [12]: 4.85 µM (inactive) | GI50 [13]: 1.98 µM (inactive) | GI50 [14]: 2.9 µM (inactive) | GI50 [15]: 9.12 µM (inactive) | GI50 [16]: 5.37 µM (inactive) | GI50 [17]: 2.07 µM (inactive) | GI50 [18]: 2.16 µM (inactive) | GI50 [19]: 4.61 µM (inactive) | GI50 [20]: 7.57 µM (inactive) | GI50 [21]: 1.71 µM (inactive) | GI50 [22]: 5.05 µM (inactive) | GI50 [23]: 2.85 µM (inactive) | GI50 [24]: 2.24 µM | GI50 [25]: 7.43 µM (inactive) | GI50 [26]: 1.85 µM (inactive) | GI50 [27]: 2.09 µM (inactive) | GI50 [28]: 1.94 µM (inactive) | GI50 [29]: 5.06 µM (inactive) | GI50 [30]: 2.44 µM (inactive) | GI50 [31]: 19.3 µM (inactive) | GI50 [32]: 2.47 µM (inactive) | GI50 [33]: 11.5 µM (inactive) | GI50 [34]: 1.53 µM (inactive) | GI50 [35]: 2.23 µM (inactive) | GI50 [36]: 11.9 µM (inactive) | GI50 [37]: 3 µM (inactive) | GI50 [38]: 3.26 µM (inactive) | GI50 [39]: 7.87 µM (inactive) | GI50 [40]: 11.9 µM (inactive) | GI50 [41]: 14.7 µM (inactive) | GI50 [42]: 5.05 µM (inactive) | GI50 [43]: 1.92 µM (inactive) | GI50 [44]: 4.35 µM (inactive) | GI50 [45]: 3.58 µM (inactive) | GI50 [46]: 3.78 µM (inactive) | GI50 [47]: 4.5 µM (inactive) | GI50 [48]: 2.6 µM (inactive) | GI50 [49]: 13.6 µM (inactive) | GI50 [50]: 1.73 µM (inactive) | GI50 [51]: 11.9 µM (inactive) | GI50 [52]: 14 µM (inactive) | GI50 [53]: 6.87 µM (inactive) | GI50 [54]: 3.32 µM (inactive) | GI50 [55]: 2.14 µM (inactive) | GI50 [56]: 2.7 µM (inactive) | GI50 [57]: 3.94 µM (inactive) | GI50 [58]: 1.27 µM (inactive) | GI50 [59]: 1.93 µM (inactive) | GI50 [60]: 8.69 µM (inactive) | GI50 [61]: 2.86 µM (inactive) | GI50 [62]: 8.79 µM (inactive) | GI50 [63]: 6.55 µM (inactive) | GI50 [64]: 11.6 µM (inactive) | GI50 [65]: 9.93 µM (inactive) | GI50 [66]: 2.53 µM (inactive)

CC1=NN(C(=O)CC(=O)Nc2ccccc2)C(=O)C1/N=N/c1ccc(S(N)(=O)=O)cc1 (centres undefined)
GI50 [1]: > 100 µM (inactive) | GI50 [2]: > 100 µM (inactive) | GI50 [3]: 41.9 µM (inactive) | GI50 [5]: > 100 µM (inactive) | GI50 [6]: 66.2 µM (inactive) | GI50 [7]: 99.8 µM (inactive) | GI50 [8]: 61.5 µM (inactive) | GI50 [10]: > 100 µM (inactive) | GI50 [11]: > 100 µM (inactive) | GI50 [12]: 80.9 µM (inactive) | GI50 [13]: 56.8 µM (inactive) | GI50 [14]: 60.4 µM (inactive) | GI50 [15]: 34.7 µM (inactive) | GI50 [16]: 57.8 µM (inactive) | GI50 [17]: 59.4 µM (inactive) | GI50 [18]: 63.8 µM (inactive) | GI50 [19]: > 100 µM (inactive) | GI50 [20]: > 100 µM (inactive) | GI50 [21]: > 100 µM (inactive) | GI50 [22]: 39.1 µM (inactive) | GI50 [23]: 88.9 µM (inactive) | GI50 [24]: > 100 µM | GI50 [25]: > 100 µM (inactive) | GI50 [26]: 48 µM (inactive) | GI50 [27]: 70.8 µM (inactive) | GI50 [28]: 95.1 µM (inactive) | GI50 [29]: > 100 µM (inactive) | GI50 [30]: 84.5 µM (inactive) | GI50 [32]: 46 µM (inactive) | GI50 [33]: > 100 µM (inactive) | GI50 [34]: 37.5 µM (inactive) | GI50 [35]: 75.5 µM (inactive) | GI50 [36]: 92.5 µM (inactive) | GI50 [37]: 80.2 µM (inactive) | GI50 [38]: 78 µM (inactive) | GI50 [39]: 56.4 µM (inactive) | GI50 [42]: 50.8 µM (inactive) | GI50 [43]: 66.5 µM (inactive) | GI50 [44]: 63.5 µM (inactive) | GI50 [46]: > 100 µM (inactive) | GI50 [47]: > 100 µM (inactive) | GI50 [49]: 71.6 µM (inactive) | GI50 [50]: 81.7 µM (inactive) | GI50 [51]: 91.6 µM (inactive) | GI50 [52]: > 100 µM (inactive) | GI50 [54]: > 100 µM (inactive) | GI50 [55]: > 100 µM (inactive) | GI50 [56]: 35.2 µM (inactive) | GI50 [57]: 61.4 µM (inactive) | GI50 [58]: 18 µM (inactive) | GI50 [59]: 49.9 µM (inactive) | GI50 [60]: > 100 µM (inactive) | GI50 [67]: 56.9 µM (inactive) | GI50 [61]: 39 µM (inactive) | GI50 [63]: 36.4 µM (inactive) | GI50 [64]: 60.8 µM (inactive) | GI50 [65]: 88.5 µM (inactive) | GI50 [66]: 32.8 µM (inactive)
